# Values quoted from earlier work, collected in patent US6696071B2, “Pre-coital and post-coital rinse with anti-viral and skin-protective zinc salts” (priority 2001, dated 2004).
# Conditions: ionic dissociation in water
compound,measurement,setting,value
O=C[O-].O=C[O-].[Zn+2] [Zinc formate],"Reported pK values, pK1",pK1,0.6
same,"Reported pK values, pK2",pK2,0.95
